Laboratory results published in the kinase profiling compilation of Christmann-Franck et al. (2016).

Key:
Details in all cases: compound 10.0 µM
FES (human) = FES (human) (UniProt P07332)
PRKCA (human) = PRKCA (human) (UniProt P17252)
STK25 (human) = STK25 (human) (UniProt O00506)
PRKG2 (human) = PRKG2 (human) (UniProt Q13237)
PAK2 (human) = PAK2 (human) (UniProt Q13177)
NEK3 (human) = NEK3 (human) (UniProt P51956)
MAP2K6 (human) = MAP2K6 (human) (UniProt P52564)
CDK1 CCNA2 (human) = CDK1 CCNA2 (human) (UniProt P20248+P06493)
MAPK9 (human) = MAPK9 (human) (UniProt P45984)
RIPK2 (human) = RIPK2 (human) (UniProt O43353)
PBK (human) = PBK (human) (UniProt Q96KB5)
FER (human) = FER (human) (UniProt P16591)
DYRK4 (human) = DYRK4 (human) (UniProt Q9NR20)
MYO3B (human) = MYO3B (human) (UniProt Q8WXR4)
MAPK12 (human) = MAPK12 (human) (UniProt P53778)
ABL2 (human) = ABL2 (human) (UniProt P42684)
SRPK1 (human) = SRPK1 (human) (UniProt Q96SB4)
MAPKAPK2 (human) = MAPKAPK2 (human) (UniProt P49137)
DYRK3 (human) = DYRK3 (human) (UniProt O43781)
PDPK1 (human) = PDPK1 (human) (UniProt O15530)
CHEK1 (human) = CHEK1 (human) (UniProt O14757)
PDGFRA (human) = PDGFRA (human) (UniProt P16234)
MAP2K1 (human) = MAP2K1 (human) (UniProt Q02750)
HIPK3 (human) = HIPK3 (human) (UniProt Q9H422)
CDK9 CCNT1 (human) = CDK9 CCNT1 (human) (UniProt O60563+P50750)
TTK (human) = TTK (human) (UniProt P33981)
AURKC (human) = AURKC (human) (UniProt Q9UQB9)
CSNK1D (human) = CSNK1D (human) (UniProt P48730)
MST4 (human) = MST4 (human) (UniProt Q9P289)
FLT4 (human) = FLT4 (human) (UniProt P35916)
GRK6 (human) = GRK6 (human) (UniProt P43250)
PNCK (human) = PNCK (human) (UniProt Q6P2M8)
PTK6 (human) = PTK6 (human) (UniProt Q13882)
YES1 (human) = YES1 (human) (UniProt P07947)
JAK3 JH1 JH2 (human) = JAK3 JH1 JH2 (human) (UniProt P52333)
NEK11 (human) = NEK11 (human) (UniProt Q8NG66)
RET (human) = RET (human) (UniProt P07949)
EPHA3 (human) = EPHA3 (human) (UniProt P29320)
CAMK4 (human) = CAMK4 (human) (UniProt Q16566)
MAP3K11 (human) = MAP3K11 (human) (UniProt Q16584)
VRK1 (human) = VRK1 (human) (UniProt Q99986)
CAMK2D (human) = CAMK2D (human) (UniProt Q13557)
GSK3A (human) = GSK3A (human) (UniProt P49840)
PRKD2 (human) = PRKD2 (human) (UniProt Q9BZL6)
Sequence of PRKD2 (human) (Q9BZL6 whole entry, looked up): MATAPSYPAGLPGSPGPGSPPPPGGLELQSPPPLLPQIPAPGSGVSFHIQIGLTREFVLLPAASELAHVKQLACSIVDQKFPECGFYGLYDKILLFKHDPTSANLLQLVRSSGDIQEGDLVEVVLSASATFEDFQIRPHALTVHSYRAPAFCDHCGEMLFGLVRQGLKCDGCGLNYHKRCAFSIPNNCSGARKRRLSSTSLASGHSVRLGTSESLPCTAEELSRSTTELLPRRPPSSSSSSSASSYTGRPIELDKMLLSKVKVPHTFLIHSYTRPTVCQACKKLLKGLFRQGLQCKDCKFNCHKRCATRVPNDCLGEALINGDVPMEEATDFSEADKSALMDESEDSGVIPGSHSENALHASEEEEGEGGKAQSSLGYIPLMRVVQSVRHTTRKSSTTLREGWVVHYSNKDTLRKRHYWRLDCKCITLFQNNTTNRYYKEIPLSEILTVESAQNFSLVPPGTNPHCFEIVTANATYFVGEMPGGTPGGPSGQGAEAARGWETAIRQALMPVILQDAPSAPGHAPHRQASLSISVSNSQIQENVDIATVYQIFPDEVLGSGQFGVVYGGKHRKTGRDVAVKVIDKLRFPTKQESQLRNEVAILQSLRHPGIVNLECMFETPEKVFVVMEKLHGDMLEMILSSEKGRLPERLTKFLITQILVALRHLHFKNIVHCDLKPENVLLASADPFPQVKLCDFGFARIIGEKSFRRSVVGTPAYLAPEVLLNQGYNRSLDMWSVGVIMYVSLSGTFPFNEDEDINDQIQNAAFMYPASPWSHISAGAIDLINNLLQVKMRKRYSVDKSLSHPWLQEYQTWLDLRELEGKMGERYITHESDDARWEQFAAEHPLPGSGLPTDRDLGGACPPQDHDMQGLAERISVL

Sequence of JAK3 JH1 JH2 (human) (P52333 whole entry, looked up): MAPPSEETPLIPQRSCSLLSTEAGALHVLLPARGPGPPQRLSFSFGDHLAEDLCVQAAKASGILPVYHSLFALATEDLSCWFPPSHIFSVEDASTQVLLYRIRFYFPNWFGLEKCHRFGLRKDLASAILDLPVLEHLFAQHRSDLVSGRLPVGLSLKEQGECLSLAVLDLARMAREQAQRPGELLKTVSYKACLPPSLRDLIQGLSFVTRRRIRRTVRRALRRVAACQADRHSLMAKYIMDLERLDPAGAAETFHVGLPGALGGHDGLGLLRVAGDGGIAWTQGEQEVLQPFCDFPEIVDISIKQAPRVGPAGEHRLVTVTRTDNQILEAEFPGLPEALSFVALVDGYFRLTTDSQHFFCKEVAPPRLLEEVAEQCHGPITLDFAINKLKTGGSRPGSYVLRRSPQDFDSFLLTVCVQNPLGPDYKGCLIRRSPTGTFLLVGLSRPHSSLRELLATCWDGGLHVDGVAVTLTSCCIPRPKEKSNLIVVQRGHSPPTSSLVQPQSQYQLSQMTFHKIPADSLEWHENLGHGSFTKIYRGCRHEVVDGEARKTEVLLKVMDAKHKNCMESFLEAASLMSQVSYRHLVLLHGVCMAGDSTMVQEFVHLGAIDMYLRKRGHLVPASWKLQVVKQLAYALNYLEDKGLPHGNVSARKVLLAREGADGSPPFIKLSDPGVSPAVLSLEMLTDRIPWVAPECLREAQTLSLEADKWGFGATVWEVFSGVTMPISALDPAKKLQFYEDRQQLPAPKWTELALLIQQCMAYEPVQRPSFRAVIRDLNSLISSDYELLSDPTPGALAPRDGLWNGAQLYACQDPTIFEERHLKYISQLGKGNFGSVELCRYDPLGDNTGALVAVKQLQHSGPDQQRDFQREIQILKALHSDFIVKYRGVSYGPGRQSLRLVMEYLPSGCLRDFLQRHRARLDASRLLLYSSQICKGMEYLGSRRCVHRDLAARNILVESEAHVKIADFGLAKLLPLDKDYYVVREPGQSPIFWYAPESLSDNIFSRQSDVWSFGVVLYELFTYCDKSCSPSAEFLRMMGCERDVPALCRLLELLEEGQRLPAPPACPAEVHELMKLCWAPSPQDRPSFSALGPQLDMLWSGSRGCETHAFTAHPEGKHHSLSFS
Sequence of YES1 (human) (P07947 whole entry, looked up): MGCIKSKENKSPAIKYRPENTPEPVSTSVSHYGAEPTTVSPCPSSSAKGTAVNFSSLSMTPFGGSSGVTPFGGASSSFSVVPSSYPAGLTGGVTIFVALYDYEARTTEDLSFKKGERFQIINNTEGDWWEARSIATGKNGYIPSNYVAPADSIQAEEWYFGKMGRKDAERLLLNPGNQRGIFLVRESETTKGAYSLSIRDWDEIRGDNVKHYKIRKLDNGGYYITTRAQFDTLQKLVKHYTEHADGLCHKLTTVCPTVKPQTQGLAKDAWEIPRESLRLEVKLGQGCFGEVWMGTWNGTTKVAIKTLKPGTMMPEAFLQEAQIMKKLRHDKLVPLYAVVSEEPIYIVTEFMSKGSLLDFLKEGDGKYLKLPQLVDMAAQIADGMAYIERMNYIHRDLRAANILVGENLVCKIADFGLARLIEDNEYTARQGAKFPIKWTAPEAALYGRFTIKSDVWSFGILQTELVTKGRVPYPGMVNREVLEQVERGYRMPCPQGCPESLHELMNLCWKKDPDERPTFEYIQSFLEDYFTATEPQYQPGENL
Sequence of DYRK3 (human) (O43781 whole entry, looked up): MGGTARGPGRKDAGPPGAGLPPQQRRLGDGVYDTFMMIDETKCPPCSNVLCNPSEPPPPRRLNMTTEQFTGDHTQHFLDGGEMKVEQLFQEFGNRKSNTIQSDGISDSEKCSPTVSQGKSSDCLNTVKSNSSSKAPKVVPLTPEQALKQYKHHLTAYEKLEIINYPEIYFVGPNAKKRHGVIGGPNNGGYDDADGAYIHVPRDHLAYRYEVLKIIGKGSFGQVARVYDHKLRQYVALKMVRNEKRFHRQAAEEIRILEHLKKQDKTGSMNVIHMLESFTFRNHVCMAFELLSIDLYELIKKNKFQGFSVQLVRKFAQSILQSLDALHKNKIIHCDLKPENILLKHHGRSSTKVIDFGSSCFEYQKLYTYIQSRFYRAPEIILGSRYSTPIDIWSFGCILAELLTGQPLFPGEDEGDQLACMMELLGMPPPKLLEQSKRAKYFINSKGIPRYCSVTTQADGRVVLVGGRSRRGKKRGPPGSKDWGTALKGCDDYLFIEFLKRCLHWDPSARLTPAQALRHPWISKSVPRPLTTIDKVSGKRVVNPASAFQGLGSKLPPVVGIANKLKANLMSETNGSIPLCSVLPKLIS
Sequence of CAMK2D (human) (Q13557 whole entry, looked up): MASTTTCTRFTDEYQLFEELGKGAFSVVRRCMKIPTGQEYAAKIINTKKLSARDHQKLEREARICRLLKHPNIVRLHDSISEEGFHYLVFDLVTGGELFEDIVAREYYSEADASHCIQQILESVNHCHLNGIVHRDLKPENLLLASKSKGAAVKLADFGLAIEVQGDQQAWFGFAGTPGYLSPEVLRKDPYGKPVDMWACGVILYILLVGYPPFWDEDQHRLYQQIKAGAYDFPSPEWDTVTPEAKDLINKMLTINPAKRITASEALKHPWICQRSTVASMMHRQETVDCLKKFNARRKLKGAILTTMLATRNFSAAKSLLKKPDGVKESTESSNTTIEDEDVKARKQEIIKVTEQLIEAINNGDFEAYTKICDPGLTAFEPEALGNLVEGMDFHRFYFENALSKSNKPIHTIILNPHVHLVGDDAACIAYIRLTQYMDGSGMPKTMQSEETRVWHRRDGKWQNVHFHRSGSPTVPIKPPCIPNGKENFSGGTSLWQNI
Sequence of CDK9 CCNT1 (human) (O60563 whole entry, looked up): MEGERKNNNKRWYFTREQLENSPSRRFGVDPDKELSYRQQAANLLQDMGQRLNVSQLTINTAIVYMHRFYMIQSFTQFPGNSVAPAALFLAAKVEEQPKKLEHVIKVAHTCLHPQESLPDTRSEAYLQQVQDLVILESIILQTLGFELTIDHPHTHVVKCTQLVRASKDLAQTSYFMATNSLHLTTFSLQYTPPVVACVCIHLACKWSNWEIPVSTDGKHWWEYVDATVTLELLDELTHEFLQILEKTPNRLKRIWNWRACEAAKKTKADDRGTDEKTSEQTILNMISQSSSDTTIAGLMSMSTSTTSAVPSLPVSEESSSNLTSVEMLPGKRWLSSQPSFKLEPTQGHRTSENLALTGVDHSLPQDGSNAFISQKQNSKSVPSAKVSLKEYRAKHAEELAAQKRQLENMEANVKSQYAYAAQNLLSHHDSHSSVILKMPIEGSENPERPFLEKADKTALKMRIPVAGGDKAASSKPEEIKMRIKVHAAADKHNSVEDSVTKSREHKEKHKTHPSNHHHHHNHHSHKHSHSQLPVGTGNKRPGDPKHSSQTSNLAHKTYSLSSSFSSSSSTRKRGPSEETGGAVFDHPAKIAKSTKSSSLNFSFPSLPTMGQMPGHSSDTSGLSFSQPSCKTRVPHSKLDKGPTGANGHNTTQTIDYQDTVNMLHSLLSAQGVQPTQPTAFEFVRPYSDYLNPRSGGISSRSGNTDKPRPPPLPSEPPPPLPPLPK
Sequence of CDK9 CCNT1 (human) (P50750 whole entry, looked up): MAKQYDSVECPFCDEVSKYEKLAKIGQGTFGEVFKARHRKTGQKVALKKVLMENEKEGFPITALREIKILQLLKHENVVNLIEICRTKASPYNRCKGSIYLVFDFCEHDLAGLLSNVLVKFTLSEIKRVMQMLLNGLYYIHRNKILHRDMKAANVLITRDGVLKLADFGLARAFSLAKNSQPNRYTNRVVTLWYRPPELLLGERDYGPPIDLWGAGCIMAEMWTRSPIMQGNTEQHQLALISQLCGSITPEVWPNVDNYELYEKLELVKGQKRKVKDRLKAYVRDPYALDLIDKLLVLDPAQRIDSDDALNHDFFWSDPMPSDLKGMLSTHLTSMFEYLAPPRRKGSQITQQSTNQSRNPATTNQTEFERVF
Sequence of PBK (human) (Q96KB5 whole entry, looked up): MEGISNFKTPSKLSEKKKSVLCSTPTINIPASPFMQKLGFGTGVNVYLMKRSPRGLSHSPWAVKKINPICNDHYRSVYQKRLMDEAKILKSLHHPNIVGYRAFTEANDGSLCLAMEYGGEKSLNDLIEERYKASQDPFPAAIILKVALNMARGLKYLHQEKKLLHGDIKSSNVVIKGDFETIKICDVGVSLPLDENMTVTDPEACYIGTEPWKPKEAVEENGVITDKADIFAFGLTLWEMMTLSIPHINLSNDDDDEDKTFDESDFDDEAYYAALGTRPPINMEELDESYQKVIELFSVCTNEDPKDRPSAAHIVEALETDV

Structure (SMILES): CC[C@H](C)n1cc(C)c2c(C(=O)NCc3c(C)cc(C)[nH]c3=O)cc(-c3ccc(N4CCNCC4)nc3)cc21
- residual activity (FES (human)): 99%
- residual activity (PRKCA (human)): 106%
- residual activity (STK25 (human)): 93%
- residual activity (PRKG2 (human)): 97%
- residual activity (PAK2 (human)): 97.5%
- residual activity (NEK3 (human)): 107%
- residual activity (MAP2K6 (human)): 94.5%
- residual activity (CDK1 CCNA2 (human)): 92.5%
- residual activity (MAPK9 (human)): 80.5%
- residual activity (RIPK2 (human)): 95.5%
- residual activity (PBK (human)): 94%
- residual activity (FER (human)): 85.5%
- residual activity (DYRK4 (human)): 98.5%
- residual activity (MYO3B (human)): 92%
- residual activity (MAPK12 (human)): 97.5%
- residual activity (ABL2 (human)): 88%
- residual activity (SRPK1 (human)): 108%
- residual activity (MAPKAPK2 (human)): 99%
- residual activity (DYRK3 (human)): 96.5%
- residual activity (PDPK1 (human)): 100%
- residual activity (CHEK1 (human)): 79%
- residual activity (PDGFRA (human)): 99.5%
- residual activity (MAP2K1 (human)): 102%
- residual activity (HIPK3 (human)): 100%
- residual activity (CDK9 CCNT1 (human)): 98%
- residual activity (TTK (human)): 102%
- residual activity (AURKC (human)): 101%
- residual activity (CSNK1D (human)): 100%
- residual activity (MST4 (human)): 98%
- residual activity (FLT4 (human)): 82.5%
- residual activity (GRK6 (human)): 104%
- residual activity (PNCK (human)): 88%
- residual activity (PTK6 (human)): 93%
- residual activity (YES1 (human)): 78.5%
- residual activity (JAK3 JH1 JH2 (human)): 95.5%
- residual activity (NEK11 (human)): 107%
- residual activity (RET (human)): 98.5%
- residual activity (EPHA3 (human)): 98%
- residual activity (CAMK4 (human)): 87.5%
- residual activity (MAP3K11 (human)): 95%
- residual activity (VRK1 (human)): 101%
- residual activity (CAMK2D (human)): 100%
- residual activity (GSK3A (human)): 102%
- residual activity (PRKD2 (human)): 98%
